26 molecules from PubChem BioAssay AID651650 (Sanford-Burnham Center for Chemical Genomics, 2012) can be followed below.

The source made the active and inactive calls.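 How the source made its calls: active means mean IC50 below 20 µM in each of the two panels, so potent in both; inactive means the rest.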 A value given as a limit tells only on which side of the number the result lay.

This assay has as its target Neuropilin-1 (Homo sapiens) (UniProt O14786). The assay can be described thus: NRP-1 b1b2 CendR peptide binding inhibitors, dose response, biochemical, FP and AlphaScreen panel (AID 651650). The conditions noted are these: NRP-1 b1b2 / RPARPAR peptide binding, FP or AlphaScreen. (In general: Alpha assays give light when donor and acceptor beads are brought close together.)

The mark [1] stands for this setting: AlphaScreen, run 1, individual panel run IC50.
[2] abbreviates: FP, run 1, individual panel run IC50.
Where [3] appears, read: FP, run 2, individual panel run IC50.

Neuropilin-1 (Homo sapiens), sequence (O14786 whole entry, looked up): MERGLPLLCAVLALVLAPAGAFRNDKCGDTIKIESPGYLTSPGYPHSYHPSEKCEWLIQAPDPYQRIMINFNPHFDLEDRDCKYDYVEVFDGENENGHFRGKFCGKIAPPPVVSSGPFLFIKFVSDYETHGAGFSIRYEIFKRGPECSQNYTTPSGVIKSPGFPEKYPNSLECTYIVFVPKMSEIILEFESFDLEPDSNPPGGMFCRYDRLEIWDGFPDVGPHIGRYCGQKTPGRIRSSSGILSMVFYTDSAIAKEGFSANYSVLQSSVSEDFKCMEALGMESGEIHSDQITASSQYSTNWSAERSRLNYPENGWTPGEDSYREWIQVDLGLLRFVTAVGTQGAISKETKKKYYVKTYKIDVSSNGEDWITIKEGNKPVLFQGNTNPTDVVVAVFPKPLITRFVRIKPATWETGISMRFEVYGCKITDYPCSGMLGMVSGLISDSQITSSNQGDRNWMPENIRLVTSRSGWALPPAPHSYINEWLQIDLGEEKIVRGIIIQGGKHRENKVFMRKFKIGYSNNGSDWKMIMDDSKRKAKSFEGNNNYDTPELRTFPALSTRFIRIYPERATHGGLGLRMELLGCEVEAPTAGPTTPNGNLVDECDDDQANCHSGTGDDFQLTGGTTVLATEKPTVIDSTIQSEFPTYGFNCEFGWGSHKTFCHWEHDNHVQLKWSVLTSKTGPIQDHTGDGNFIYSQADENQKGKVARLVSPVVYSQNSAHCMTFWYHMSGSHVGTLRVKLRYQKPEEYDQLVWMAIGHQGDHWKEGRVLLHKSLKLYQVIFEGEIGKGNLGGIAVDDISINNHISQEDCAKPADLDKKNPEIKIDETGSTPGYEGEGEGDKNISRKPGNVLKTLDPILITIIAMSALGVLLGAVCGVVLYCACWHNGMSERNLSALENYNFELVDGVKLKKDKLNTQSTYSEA

Broadly, the IC50 is the concentration that gives 50% inhibition. With `COc1ccc(Nc2nc(-c3cccnc3)nc3ccccc23)cn1`, the IC50 result (AlphaScreen, mean of runs) was “inactive”. For the same molecule, the 50% inhibitory concentration (IC50) under setting [1] was 54.7 µM; the IC50 (FP, mean of runs) was > 95 µM (inactive); the concentration for half-maximal inhibition (IC50) under setting [2] is > 95 µM; the half-inhibitory concentration (IC50) under setting [3] is > 95 µM.
For the molecule `O=C(COc1cc(Cl)c(Cl)cc1Cl)Nc1ccc([N+](=O)[O-])cc1Cl`, the IC50 was > 100 µM (inactive) (AlphaScreen, mean of runs); > 100 µM under setting [1]; > 95 µM (inactive) (FP, mean of runs); > 95 µM under setting [2]; > 95 µM under setting [3].
As for `CC(/C=C/c1ccccc1)=N\NC(=O)CCc1ccccc1`, the IC50 reads like this: (AlphaScreen, mean of runs) > 100 µM (inactive); under setting [1], > 100 µM; (FP, mean of runs) > 95 µM (inactive); under setting [2], > 95 µM; under setting [3], > 95 µM.
With `CCN(CC)C(=O)c1cccc(-c2csc(C(NC(C)=O)c3cccc(OC)c3)n2)c1` (stereo not given), the IC50 is > 100 µM (inactive) (AlphaScreen, mean of runs); > 100 µM under setting [1]; > 95 µM (inactive) (FP, mean of runs); > 95 µM under setting [2]; > 95 µM under setting [3].
`N=C1C(=O)OCC1c1cc(Cl)ccc1NC(=O)Nc1ccccc1` (stereo not given): the IC50 entry (AlphaScreen, mean of runs) is “inactive”. The IC50 by setting is: under setting [1], 90.5 µM; (FP, mean of runs) > 95 µM (inactive); under setting [2], > 95 µM; under setting [3], > 95 µM.
With `CC(CN1CCCCC1)OC(=O)c1ccc(Cl)cc1Cl` (stereo not given), the IC50 (AlphaScreen, mean of runs) is > 100 µM (inactive); the IC50 under setting [1] is > 100 µM; the IC50 (FP, mean of runs) was > 95 µM (inactive); the concentration for half-maximal inhibition (IC50) under setting [2] was > 95 µM; the half-inhibitory concentration (IC50) under setting [3] was > 95 µM.
Turning to `CC(CN1CCOCC1)OC(=O)c1ccc2c(c1)OCCO2` (stereo not given), the IC50 (AlphaScreen, mean of runs) is > 100 µM (inactive); the IC50 under setting [1] was > 100 µM; the IC50 (FP, mean of runs) is > 95 µM (inactive); the IC50 under setting [2] is > 95 µM; the IC50 under setting [3] was > 95 µM.
Turning to `CCOC(=O)c1cnc(-c2ccccc2)nc1Oc1ccc(OC)cc1`, the IC50 is 10.4 µM (AlphaScreen, mean of runs); 10.4 µM under setting [1]; 19.9 µM (FP, mean of runs); 17.9 µM under setting [2]; 21.8 µM under setting [3].
With `O=C(Nc1cccc(C(F)(F)F)c1)C1Cc2c(-c3cccc(F)c3)ccnc2O1` (stereo not given), the IC50 is > 100 µM (inactive) (AlphaScreen, mean of runs); > 100 µM under setting [1]; > 95 µM (inactive) (FP, mean of runs); > 95 µM under setting [2]; > 95 µM under setting [3].
As to `CC1(C(=O)NCc2cccc3ccccc23)CCN1Cc1cccc2c1OCO2` (stereo not given), the IC50 is > 100 µM (inactive) (AlphaScreen, mean of runs); > 100 µM under setting [1]; > 95 µM (inactive) (FP, mean of runs); > 95 µM under setting [2]; > 95 µM under setting [3].
Turning to `O=[N+]([O-])c1cc(-c2csc(NCCc3nc4cc(C(F)(F)F)ccc4n3CCCO)n2)ccc1Cl`, the IC50 (AlphaScreen, mean of runs) was > 100 µM (inactive); the IC50 under setting [1] was > 100 µM; the IC50 (FP, mean of runs) is > 95 µM (inactive); the IC50 under setting [2] was > 95 µM; the IC50 under setting [3] is > 95 µM.
`CCOC(=O)Cc1cnc(NC(=O)NC(C(=O)OCC)(c2ccccc2)C(F)(F)F)s1` (stereo not given): the IC50 entry (AlphaScreen, mean of runs) is “inactive”. Besides, the IC50 was 25.1 µM under setting [1]; > 95 µM (inactive) (FP, mean of runs); > 95 µM under setting [2]; > 95 µM under setting [3].
Take `Cc1cc(NC(=O)COC(=O)c2ccc(C)c(C)c2)no1`: the IC50 is > 100 µM (inactive) (AlphaScreen, mean of runs); > 100 µM under setting [1]; > 95 µM (inactive) (FP, mean of runs); > 95 µM under setting [2]; > 95 µM under setting [3].
For `C/C(=N\N=c1/sc2ccccc2n1C)c1ccccn1`, the IC50 is > 100 µM (inactive) (AlphaScreen, mean of runs); > 100 µM under setting [1]; > 95 µM (inactive) (FP, mean of runs); > 95 µM under setting [2]; > 95 µM under setting [3].
As to `COC(=O)C1=C(c2cccc(C#N)c2)C[C@@H]2CC[C@H]1N2C(=O)NCCO`, the IC50 (AlphaScreen, mean of runs) was > 100 µM (inactive); the IC50 under setting [1] is > 100 µM; the IC50 (FP, mean of runs) was > 95 µM (inactive); the concentration for half-maximal inhibition (IC50) under setting [2] is > 95 µM; the IC50 under setting [3] is > 95 µM.
Turning to `COc1ccc(OCC(=O)O/N=C(\N)Cc2ccc(Cl)cc2Cl)cc1`, the IC50 entry (AlphaScreen, mean of runs) is “inactive”. In addition, the IC50 reads like this: under setting [1], 55.3 µM; (FP, mean of runs) > 95 µM (inactive); under setting [2], > 95 µM; under setting [3], > 95 µM.
As to `O=C(NCCCN1CCCC(O)C1)c1cc(COc2ccc(F)cc2F)on1` (stereo not given), the IC50 (AlphaScreen, mean of runs) is > 100 µM (inactive); the IC50 under setting [1] is > 100 µM; the IC50 (FP, mean of runs) was > 95 µM (inactive); the IC50 under setting [2] was > 95 µM; the half-inhibitory concentration (IC50) under setting [3] was > 95 µM.
`CCOc1ccc(S(=O)(=O)NNC(=O)c2cc3ccccc3o2)cc1`: the IC50 reads like this: (AlphaScreen, mean of runs) > 100 µM (inactive); under setting [1], > 100 µM; (FP, mean of runs) > 95 µM (inactive); under setting [2], > 95 µM; under setting [3], > 95 µM.
In the case of `CCOC(=O)C1CCN(Cc2ccc3ccccc3c2)CC1`, the IC50 runs as follows: (AlphaScreen, mean of runs) > 100 µM (inactive); under setting [1], > 100 µM; (FP, mean of runs) > 95 µM (inactive); under setting [2], > 95 µM; under setting [3], > 95 µM.
With `O=C(CSc1nc(O)c(Cc2ccccc2)c(=O)n1-c1ccccc1)N1CCOCC1`, the IC50 was > 100 µM (inactive) (AlphaScreen, mean of runs); > 100 µM under setting [1]; > 95 µM (inactive) (FP, mean of runs); > 95 µM under setting [2]; > 95 µM under setting [3].
With `CC(C)C[C@@H](COc1ccccc1)N1CCN(CCc2ccccc2)CCC1=O`, the IC50 was > 100 µM (inactive) (AlphaScreen, mean of runs); > 100 µM under setting [1]; > 95 µM (inactive) (FP, mean of runs); > 95 µM under setting [2]; > 95 µM under setting [3].
On to `CCNC(=O)C1(C)CCCN(C(=O)c2nc(C)oc2C)C1` (stereo not given), for which the IC50 by setting is: (AlphaScreen, mean of runs) > 100 µM (inactive); under setting [1], > 100 µM; (FP, mean of runs) > 95 µM (inactive); under setting [2], > 95 µM; under setting [3], > 95 µM.
`O=c1c2ccccc2nc2n1C(CSc1ccc(F)cc1)CS2` (stereo not given): the 50% inhibitory concentration (IC50) was 11.5 µM (AlphaScreen, mean of runs); 11.5 µM under setting [1]; > 95 µM (inactive) (FP, mean of runs); > 95 µM under setting [2]; > 95 µM under setting [3].
As for `O=S(=O)(c1cc(Cl)cc(Cl)c1)N1Cc2cc(-c3ccccc3)ccc2-n2nncc2C1`, the IC50 (AlphaScreen, mean of runs) was > 100 µM (inactive); the IC50 under setting [1] is > 100 µM; the IC50 (FP, mean of runs) was > 95 µM (inactive); the half-maximal inhibitory concentration (IC50) under setting [2] is > 95 µM; the IC50 under setting [3] is > 95 µM.
Regarding `Cc1nn(-c2ccccc2)c(C)c1C(=O)OCC(=O)Nc1ccccc1`, the IC50 by setting is: (AlphaScreen, mean of runs) > 100 µM (inactive); under setting [1], > 100 µM; (FP, mean of runs) > 95 µM (inactive); under setting [2], > 95 µM; under setting [3], > 95 µM.
Turning to `CCCn1c(C)cc(C(=O)CSc2nc3nc(C)cc(C)n3n2)c1C`, the IC50 is > 100 µM (inactive) (AlphaScreen, mean of runs); > 100 µM under setting [1]; > 95 µM (inactive) (FP, mean of runs); > 95 µM under setting [2]; > 95 µM under setting [3].
